Experimental data published in PubChem BioAssay (NCI).
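Tested at 5 concentrations; 48 h exposure; 96-well plates; endpoints linearly interpolated, else capped at highest concentration. TGI marks complete inhibition of growth.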

Columns and labels:
Assay in all cases: growth of human tumour cells (NCI), 48 h
U251 CNS = test system: U251 CNS
DU-145 prostate = test system: DU-145 prostate
NCI-H460 lung = test system: NCI-H460 lung
NCI/ADR-RES ovarian = test system: NCI/ADR-RES ovarian
CAKI-1 renal = test system: CAKI-1 renal
SK-MEL-28 melanoma = test system: SK-MEL-28 melanoma
MDA-MB-231 breast = test system: MDA-MB-231 breast
T-47D breast = test system: T-47D breast
SF-295 CNS = test system: SF-295 CNS
HL-60(TB) leukemia = test system: HL-60(TB) leukemia
MDA-MB-435 = test system: MDA-MB-435
MDA-N = test system: MDA-N
OVCAR-4 ovarian = test system: OVCAR-4 ovarian
ACHN renal = test system: ACHN renal
UACC-62 melanoma = test system: UACC-62 melanoma
HOP-92 NSCLC = test system: HOP-92 NSCLC
KM12 colon = test system: KM12 colon
NCI-H522 lung = test system: NCI-H522 lung
NCI-H23 lung = test system: NCI-H23 lung
M14 melanoma = test system: M14 melanoma
OVCAR-8 ovarian = test system: OVCAR-8 ovarian
MOLT-4 leukemia = test system: MOLT-4 leukemia
SNB-19 CNS = test system: SNB-19 CNS
CCRF-CEM leukemia = test system: CCRF-CEM leukemia
MALME-3M melanoma = test system: MALME-3M melanoma
COLO 205 colon = test system: COLO 205 colon
SK-OV-3 ovarian = test system: SK-OV-3 ovarian
HCC-2998 colon = test system: HCC-2998 colon
HT29 colon = test system: HT29 colon
RPMI-8226 leukemia = test system: RPMI-8226 leukemia
K-562 leukemia = test system: K-562 leukemia
NCI-H226 lung = test system: NCI-H226 lung
OVCAR-5 ovarian = test system: OVCAR-5 ovarian
SNB-75 CNS = test system: SNB-75 CNS
SN12C renal = test system: SN12C renal
UO-31 renal = test system: UO-31 renal
BT-549 breast = test system: BT-549 breast
SF-268 CNS = test system: SF-268 CNS
OVCAR-3 ovarian = test system: OVCAR-3 ovarian
SK-MEL-5 melanoma = test system: SK-MEL-5 melanoma
SK-MEL-2 melanoma = test system: SK-MEL-2 melanoma
HCT-15 colon = test system: HCT-15 colon
PC-3 prostate = test system: PC-3 prostate
MCF7 breast = test system: MCF7 breast
SW-620 colon = test system: SW-620 colon
786-0 renal = test system: 786-0 renal
HCT-116 colon = test system: HCT-116 colon
EKVX NSCLC = test system: EKVX NSCLC
TK-10 renal = test system: TK-10 renal
A498 renal = test system: A498 renal
UACC-257 melanoma = test system: UACC-257 melanoma
SF-539 CNS = test system: SF-539 CNS
HS 578T breast = test system: HS 578T breast
LOX IMVI melanoma = test system: LOX IMVI melanoma
A549 NSCLC = test system: A549 NSCLC
IGROV1 ovarian = test system: IGROV1 ovarian

COC(=O)c1ccc(NCC2=C(Br)C(=O)C=CC2=O)cc1Cl
TGI (U251 CNS): 43.6 µM
TGI (DU-145 prostate): 42.5 µM
TGI (NCI-H460 lung): 32.2 µM
TGI (NCI/ADR-RES ovarian): 75.4 µM
TGI (CAKI-1 renal): 70.6 µM
TGI (SK-MEL-28 melanoma): 33.6 µM
TGI (MDA-MB-231 breast): 34.8 µM
TGI (T-47D breast): 38.6 µM
TGI (SF-295 CNS): > 100 µM
TGI (HL-60(TB) leukemia): > 100 µM
TGI (MDA-MB-435): 38.1 µM
TGI (MDA-N): 35.8 µM
TGI (OVCAR-4 ovarian): 62.3 µM
TGI (ACHN renal): 30.7 µM
TGI (UACC-62 melanoma): 33.8 µM
TGI (HOP-92 NSCLC): 29.1 µM
TGI (KM12 colon): > 100 µM
TGI (NCI-H522 lung): 21.2 µM
TGI (NCI-H23 lung): 45.8 µM
TGI (M14 melanoma): 32.1 µM
TGI (OVCAR-8 ovarian): 47.1 µM
TGI (MOLT-4 leukemia): > 100 µM
TGI (SNB-19 CNS): > 100 µM
TGI (CCRF-CEM leukemia): > 100 µM
TGI (MALME-3M melanoma): 28.4 µM
TGI (COLO 205 colon): 31.6 µM
TGI (SK-OV-3 ovarian): > 100 µM
TGI (HCC-2998 colon): > 100 µM
TGI (HT29 colon): 32.6 µM
TGI (RPMI-8226 leukemia): > 100 µM
TGI (K-562 leukemia): > 100 µM
TGI (NCI-H226 lung): > 100 µM
TGI (OVCAR-5 ovarian): 36.7 µM
TGI (SNB-75 CNS): > 100 µM
TGI (SN12C renal): 30.1 µM
TGI (UO-31 renal): 34.7 µM
TGI (BT-549 breast): 26.1 µM
TGI (SF-268 CNS): 35.1 µM
TGI (OVCAR-3 ovarian): 26.8 µM
TGI (SK-MEL-5 melanoma): 41.1 µM
TGI (SK-MEL-2 melanoma): 52.6 µM
TGI (HCT-15 colon): 29.2 µM
TGI (PC-3 prostate): 43.8 µM
TGI (MCF7 breast): 30.9 µM
TGI (SW-620 colon): 30.8 µM
TGI (786-0 renal): 26.1 µM
TGI (HCT-116 colon): 31.9 µM
TGI (EKVX NSCLC): 27.9 µM
TGI (TK-10 renal): 30.9 µM
TGI (A498 renal): > 100 µM
TGI (UACC-257 melanoma): 72.2 µM
TGI (SF-539 CNS): 35.7 µM
TGI (HS 578T breast): > 100 µM
TGI (LOX IMVI melanoma): 28.1 µM
TGI (A549 NSCLC): > 100 µM
TGI (IGROV1 ovarian): 30.5 µM
